“Also recorded” adds a separate entry of the source.
Legend:
[1] = tested on: rat insulinoma cell lines (RIN5F β-cell line); assay: In vitro bioluminescence imaging of cell lines with coelenterazine (cell plate assay); format: cell-based
Method: FIG. 1A is a digital image illustrating a cell plate assay. 10^5 cells of each cell line were washed two times in serum-free RPMI and plated in a 96-well black plate. Coelenterazine was added to a final concentration of 10 μM and the plate imaged. RIN5F is a β-cell line and the remainder are control cell lines.
FIG. 1B is a graph illustrating the quantification of the bioluminescence signals of FIG. 1A. Error bars represent the standard error.
In vitro experiments for the imaging cell lines may be completed on the day of cell collection or following incubation. If imaging is performed following prolonged incubation combined with comparisons between dissimilar cell lines, it is important to consider the likelihood of there being a different division rate for each cell line.
For same-day imaging, the cells are collected by a method dictated by the particular cell line. Cells are washed twice in imaging buffer by repeated resuspension and centrifugation (a variety of buffers have proven effective, including: PBS, DPBS and Krebs). […] The desired concentration of cells is added to an imaging plate.
Coelenterazine is resuspended to a concentration of about 1-10 mg/mL in 100% ethanol and then diluted in imaging buffer to achieve the desired imaging concentration. […]
The coelenterazine is added to wells to be imaged and the signal detected using a bioluminescence detection system such as an IVIS. […]

[2] = tested on: β-cell mass (pancreatic signal); assay: In vivo bioluminescence imaging of beta cell mass after intravenous coelenterazine; design: species or system mice
Method: FIG. 3A is a digital image, for the in vivo characterization of a coelenterazine (CTZ) pancreatic signal, showing the bioluminescence imaging of mice that were fasted for 6 h or received 2 g/kg intraperitoneal glucose and maintained on 10% sucrose water for 4 h. Mice then received 40 μg CTZ intravenously and were imaged immediately. FIG. 3C is a digital image, for the in vivo characterization of a coelenterazine (CTZ) pancreatic signal, showing the bioluminescence imaging of mice treated with glucose followed by administration of 0.56, 1.4, or 3.5 mg/kg CTZ intravenously. FIG. 3D is a graph illustrating the quantification of the signal detected in FIG. 3C at 1 min intervals following CTZ injection. […] A standardized anesthetic protocol with a defined anesthetic dose and induction period (if using inhalant anesthetics) is also required. Coelenterazine is prepared at a concentration of 10 mg/mL in 100% ethanol. The coelenterazine may be further diluted in a pharmaceutically acceptable carrier selected as suitable for injection into an animal subject for imaging. […] It is important to protect the imaging solution from light and that is prepared immediately prior to use. Following anesthetic induction, the imaging solution is intravenously administered at a dose of about 1-10 mg/kg and imaging is begun immediately in using an in vivo bioluminescence imaging system.

[3] = tested on: β-cell mass (pancreatic signal); assay: Streptozotocin-induced diabetic mouse model, coelenterazine imaging of pancreas; format: in vivo, mice
Method: FIGS. 4A-4D illustrate the results from a streptozotocin-induced diabetic mouse model. Mice were treated with 200 mg/kg of streptozotocin (STZ) or PBS on day 0.
Top Panel: 3-days post-treatment, mice were administered 2 g/kg glucose and maintained on 10% sucrose water. Four h later, mice were intravenously injected with 1.4 mg/kg of coelenterazine and imaged. Bottom panel: Bioluminescence imaging of the excised pancreases collected from the mice depicted in top panel.
To conclusively determine the β-cell specificity of the signal, coelenterazine was used to image the pancreas of mice that received the β-cell toxic agent streptozotocin (STZ) versus a Phosphate-Buffered Saline (PBS) control in which the β-cells were functional.

[4] = tested on: pancreas; assay: Ex vivo bioluminescence imaging of excised tissues with coelenterazine; design: species or system mice; settings: ex vivo imaging of excised mouse tissues; significance P<0.05
Method: FIG. 2A is a digital image illustrating bioluminescence images of excised tissues from 3 mice in 1 mL PBS with 20 μg coelenterazine and imaged immediately.
Error bars represent the standard error and significance is defined as P<0.05.

| Compound | coelenterazine-dependent bioluminescence signal of rat insulinoma cell lines relative to other cell lines ([1]; in the absence of any additional reagents) | time to stable maximum of signal following coelenterazine addition ([1]; in vitro, cells in imaging buffer) [min] | time of maximum pancreatic signal intensity post-injection ([2]; intravenous, about 1-10 mg/kg) [min] | signal of insulin-secreting β-cells compared to cells quiescent due to fasting ([2]; mice, glucose-treated vs fasted) | dose dependence of detectable signal intensity ([2]; mice, intravenous) | location of bioluminescence signal upon intravenous injection ([2]; mice, intravenous) | pancreatic signal in STZ-treated mice versus PBS control ([3]; STZ 200 mg/kg day 0, imaging 3 days post-treatment, in vivo and ex vivo pancreas) | correlation between pancreatic signal and blood glucose ([3]; STZ and PBS mice) | bioluminescence signal of pancreas compared to other tissues [4] | blood glucose values, STZ versus PBS ([3]; 200 mg/kg STZ on day 0, measured on day 3) |
| --- | --- | --- | --- | --- | --- | --- | --- | --- | --- | --- |
| O=c1c(Cc2ccc(O)cc2)nc2c(Cc3ccccc3)[nH]c(-c3ccc(O)cc3)cn1-2 [coelenterazine, 6-(4-hydroxyphenyl)-2-[(4-hydroxyphenyl)methyl]-8-(phenylmethyl)-7H-imidazo[3,2-a]pyrazin-3-one] | greater coelenterazine-dependent bioluminescence signal relative to other cell lines | 15 to 45 | 2 to 5 | insulin-secreting β-cells produced a greater signal | dose-dependent | pancreatic-specific bioluminescent signal; also recorded: a mid-upper abdominal bioluminescence signal was detected | significant difference (P=0.0000); also recorded: reduced in type I diabetic mice; also recorded: significant reduction in pancreatic signal in STZ-treated mice | correlation was significant (P=0.0317); also recorded: significant and inverse correlation | Significantly greater signals were detected from the pancreas compared to all other tissues; also recorded: significantly elevated pancreatic signal compared to other examined non-insulin-producing tissues | – |
| CN(N=O)C(=O)N[C@H]1C(O)O[C@H](CO)[C@@H](O)[C@@H]1O (mixture of isomers) [streptozotocin] | – | – | – | – | – | – | – | – | – | difference (P=0.0265) |
